Laboratory results as given in patent publication US20230293526A1, “METHOD FOR TREATING CANCER WITH A REVERSE TRANSCRIPTASE INHIBITOR” (PrimeFour Therapeutics, Inc., priority 2020, published 2023).

Key:
human LINE-1 = test: Human LINE-1 (L1) retrotransposition dual-luciferase reporter assay in HeLa cells; type: cell-based; details: Homo sapiens, HeLa, 72 h, read-out: Human LINE-1 IC50 (Human L1 activity inhibition)
Method in brief: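 HeLa cells transfected with dual-luciferase L1 plasmid pYX017 (100 ng/well), dosed immediately after with serially diluted compounds (0.2% DMSO final) in triplicate and incubated 72 h at 37 °C. Relative L1 activity = Firefly/Renilla ×10,000; IC50 from logistic non-linear regression.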

cancer cell lines = test: Cancer cell proliferation activity of representative nucleosides, CellTiterGlo 72 h (Example 7, Tables 8 and 9); type: cell-based; details: 72 h
Method in brief: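 Cancer cell lines seeded and incubated at 37° C overnight, then exposed to nucleosides (final DMSO 0.1%) for 72 h at 37° C with 5% or 10% CO2. Viability read by CellTiterGlo luminescence and normalized to 0.1% DMSO (100%) and 10 μM staurosporine (0%) controls.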

[1] = Homo sapiens, 22Rv1, 72 h, 22RV1, prostate
[2] = Homo sapiens, 786-0, 72 h, 786O, kidney
[3] = Homo sapiens, A204, 72 h, A204, muscle
[4] = Homo sapiens, A549, 72 h, A549, lung
[5] = Homo sapiens, A673, 72 h, A673, bone
[6] = Homo sapiens, A2780, 72 h, A2780, ovary
[7] = Homo sapiens, A-375, 72 h, A375, skin
[8] = Homo sapiens, A-431, 72 h, A431, skin
[9] = Homo sapiens, ASPC1, 72 h, ASPC1, pancreas
[10] = Homo sapiens, BT-20, 72 h, BT20, breast
[11] = Homo sapiens, BXPC-3, 72 h, BXPC3, pancreas
[12] = Homo sapiens, C-33-A, C33A, endometrial
[13] = Homo sapiens, CAKI-1, 72 h, CAKI1, kidney
[14] = Homo sapiens, COLO 205, 72 h, COLO205, colon
[15] = Homo sapiens, COLO-678, 72 h, COLO678, colon
[16] = Homo sapiens, Ca-Ski, CASKI, endometrial
[17] = Homo sapiens, Caco-2, 72 h, CACO2, colon
[18] = Homo sapiens, Calu-6, 72 h, CALU6, lung
[19] = Homo sapiens, DLD-1, 72 h, DLD1, colon
[20] = Homo sapiens, DU-145, 72 h, DU145, prostate
[21] = Homo sapiens, EFO-21, 72 h, EFO21, ovary
[22] = Homo sapiens, EJ-28, 72 h, EJ28, bladder
[23] = Homo sapiens, Granta-519, 72 h, GRANTA-519, hematological
[24] = Homo sapiens, HCT-15, 72 h, HCT15, colon
[25] = Homo sapiens, HCT-116, 72 h, HCT116, colon
[26] = Homo sapiens, HEK293, 72 h, HEK293, kidney
[27] = Homo sapiens, HL-60, 72 h, HL-60, hematological
[28] = Homo sapiens, HT-29, 72 h, HT29, colon
[29] = Homo sapiens, HT-1080, 72 h, HT1080, connective tissue
[30] = Homo sapiens, HeLa, endometrial
[31] = Homo sapiens, HepG2, 72 h, HEPG2, liver
[32] = Homo sapiens, Hs-578T, HS578T, breast
[33] = Homo sapiens, IGROV-1, 72 h, IGROV1, ovary
[34] = Homo sapiens, IMR-90, 72 h, IMR90, lung
[35] = Homo sapiens, JEG-3, 72 h, JEG3, placenta
[36] = Homo sapiens, JIMT-1, 72 h, JIMT1, breast
[37] = Homo sapiens, K562, 72 h, K-562, hematological
[38] = Homo sapiens, Kasumi 1, 72 h, KASUMI-1, hematological
[39] = Homo sapiens, L-363, 72 h, L-363, hematological
[40] = Homo sapiens, MCF7, 72 h, MCF7, breast
[41] = Homo sapiens, MDA-MB-231, 72 h, MDAMB231, breast
[42] = Homo sapiens, MDA-MB-435, 72 h, MDAMB435, skin
[43] = Homo sapiens, MDA-MB-436, 72 h, MDAMB436, breast
[44] = Homo sapiens, MDA-MB-468, 72 h, MDAMB468, breast
[45] = Homo sapiens, MG-63, 72 h, MG63, bone
[46] = Homo sapiens, MHH-ES-1, 72 h, MHHES1, bone
[47] = Homo sapiens, MIA PaCa-2, 72 h, MIAPACA2, pancreas
[48] = Homo sapiens, MINO, hematological
[49] = Homo sapiens, MV4-11, 72 h, MV4-11, hematological
[50] = Homo sapiens, NCI-H23, 72 h, NCI-H23, lung
[51] = Homo sapiens, NCI-H82, 72 h, NCIH82, lung
[52] = Homo sapiens, NCI-H292, 72 h, NCIH292, lung
[53] = Homo sapiens, NCI-H460, 72 h, NCIH460, ung
[54] = Homo sapiens, OVCAR-3, 72 h, OVCAR3, ovary
[55] = Homo sapiens, OVCAR-4, 72 h, OVCAR4, ovary
[56] = Homo sapiens, PANC-1, 72 h, PANC1, pancreas
[57] = Homo sapiens, PLC-PRF-5, 72 h, PLCPRF5, liver
[58] = Homo sapiens, Panc1005, 72 h, PANC1005, pancreas
[59] = Homo sapiens, Ramos, hematological
[60] = Homo sapiens, SAOS-2, 72 h, SAOS2, bone
[61] = Homo sapiens, SF-268, 72 h, SF268, brain
[62] = Homo sapiens, SF-295, 72 h, SF295, brain
[63] = Homo sapiens, SK-BR-3, 72 h, SKBR3, breast
[64] = Homo sapiens, SK-HEP1, 72 h, SKHEP1, liver
[65] = Homo sapiens, SK-LMS-1, 72 h, SKLMS1, uterus
[66] = Homo sapiens, SK-MEL-5, 72 h, SKMEL5, skin
[67] = Homo sapiens, SK-MEL-28, 72 h, SKMEL28, skin
[68] = Homo sapiens, SK-N-AS, SKNAS, brain
[69] = Homo sapiens, SK-N-SH, SKNSH, brain
[70] = Homo sapiens, SK-OV-3, 72 h, SKOV3, ovary
[71] = Homo sapiens, SNB-75, 72 h, SNB75, brain
[72] = Homo sapiens, SU-DHL10, 72 h, SU-DHL-10, hematological
[73] = Homo sapiens, SU-DHL-6, 72 h, SU-DHL-6, hematological
[74] = Homo sapiens, SW-620, 72 h, SW620, colon
[75] = Homo sapiens, TE-671, 72 h, TE671, muscle
[76] = Homo sapiens, THP-1, 72 h, THP-1, hematological
[77] = Homo sapiens, U-87 MG, U87MG, brain
[78] = Homo sapiens, UMUC3, 72 h, UMUC3, bladder
[79] = Homo sapiens, UO-31, 72 h, UO31, kidney
[80] = Homo sapiens, WSU-NHL, hematological

Measured: IC50

CC[C@]1(CO)O[C@@H](n2ccc(N)nc2=O)C[C@@H]1O [compound 21, 4-amino-1-((2R,4S,5R)-5-ethyl-4-hydroxy-5-(hydroxymethyl)tetrahydrofuran-2-yl)pyrimidin-2(1H)-one]
3.46 µM: cancer cell lines; T24, bladder
4.01 µM: cancer cell lines; [53]
5.54 µM: cancer cell lines; [4]
3.29 µM: cancer cell lines; MT3, breast
3.44 µM: cancer cell lines; [14]
4.62 µM: cancer cell lines; [52]
0.043 µM: human LINE-1
4.39 µM: cancer cell lines; [49]
9.45 µM: cancer cell lines; [79]
2.82 µM: cancer cell lines; [80]
> 50 µM: cancer cell lines; 72 h, 5637, bladder | cancer cell lines; CLS439, bladder | cancer cell lines; HS729, muscle | cancer cell lines; J82, bladder | cancer cell lines; JAR, placenta | cancer cell lines; PC3, prostate | cancer cell lines; RD, muscle | cancer cell lines; [1] | cancer cell lines; [2] | cancer cell lines; [5] | cancer cell lines; [6] | cancer cell lines; [7] | cancer cell lines; [8] | cancer cell lines; [9] | cancer cell lines; [10] | cancer cell lines; [11] | cancer cell lines; [15] | cancer cell lines; [16] | cancer cell lines; [17] | cancer cell lines; [18] | cancer cell lines; [19] | cancer cell lines; [20] | cancer cell lines; [21] | cancer cell lines; [22] | cancer cell lines; [26] | cancer cell lines; [27] | cancer cell lines; [28] | cancer cell lines; [29] | cancer cell lines; [30] | cancer cell lines; [31] | cancer cell lines; [32] | cancer cell lines; [33] | cancer cell lines; [34] | cancer cell lines; [35] | cancer cell lines; [36] | cancer cell lines; [37] | cancer cell lines; [38] | cancer cell lines; [39] | cancer cell lines; Homo sapiens, LoVo, colon | cancer cell lines; [40] | cancer cell lines; [42] | cancer cell lines; [43] | cancer cell lines; [44] | cancer cell lines; [45] | cancer cell lines; [46] | cancer cell lines; [47] | cancer cell lines; [50] | cancer cell lines; [51] | cancer cell lines; [54] | cancer cell lines; [55] | cancer cell lines; [56] | cancer cell lines; [57] | cancer cell lines; [58] | cancer cell lines; [60] | cancer cell lines; [61] | cancer cell lines; [62] | cancer cell lines; [63] | cancer cell lines; [64] | cancer cell lines; [65] | cancer cell lines; [66] | cancer cell lines; [67] | cancer cell lines; [68] | cancer cell lines; [69] | cancer cell lines; [70] | cancer cell lines; [71] | cancer cell lines; [72] | cancer cell lines; [74] | cancer cell lines; [75] | cancer cell lines; [76] | cancer cell lines; Homo sapiens, U2OS, bone | cancer cell lines; [77] | cancer cell lines; [78] | cancer cell lines; RD-ES, RDES, bone
9.11 µM: cancer cell lines; [24]
1.49 µM: cancer cell lines; [13] | cancer cell lines; NCI-H358M, NCIH358M, lung
1.3 µM: cancer cell lines; [48]
1.72 µM: cancer cell lines; [59]
2.85 µM: cancer cell lines; [41]
11.8 µM: cancer cell lines; PBMC, hematological
3.8 µM: cancer cell lines; [73]
3.01 µM: cancer cell lines; [25]
0.27 µM: cancer cell lines; [3]
2.74 µM: cancer cell lines; Homo sapiens, ACHN, kidney
6.53 µM: cancer cell lines; [12]
1.61 µM: cancer cell lines; [23]

C#C[C@]1(CO)O[C@@H](n2cc(F)c(=O)[nH]c2=O)C[C@@H]1O [compound 15]
0.37 µM: cancer cell lines; 72 h, 5637, bladder | cancer cell lines; [63]
3.69 µM: cancer cell lines; [1]
3.07 µM: cancer cell lines; [12]
3.86 µM: cancer cell lines; [72]
1.72 µM: cancer cell lines; [49]
1.3 µM: cancer cell lines; [73]
0.59 µM: cancer cell lines; [11]
0.67 µM: cancer cell lines; NCI-H358M, NCIH358M, lung
0.833 µM: human LINE-1
1.18 µM: cancer cell lines; [59]
0.35 µM: cancer cell lines; [23]
2.06 µM: cancer cell lines; Homo sapiens, LoVo, colon
1.42 µM: cancer cell lines; [8]
0.87 µM: cancer cell lines; [14] | cancer cell lines; [80]
> 50 µM: cancer cell lines; CLS439, bladder | cancer cell lines; HS729, muscle | cancer cell lines; J82, bladder | cancer cell lines; JAR, placenta | cancer cell lines; MT3, breast | cancer cell lines; PC3, prostate | cancer cell lines; RD, muscle | cancer cell lines; T24, bladder | cancer cell lines; [2] | cancer cell lines; [3] | cancer cell lines; [4] | cancer cell lines; [5] | cancer cell lines; [6] | cancer cell lines; [7] | cancer cell lines; [10] | cancer cell lines; [13] | cancer cell lines; [15] | cancer cell lines; [16] | cancer cell lines; [17] | cancer cell lines; [18] | cancer cell lines; [19] | cancer cell lines; [20] | cancer cell lines; [21] | cancer cell lines; [22] | cancer cell lines; [24] | cancer cell lines; [25] | cancer cell lines; [26] | cancer cell lines; [27] | cancer cell lines; [28] | cancer cell lines; [29] | cancer cell lines; [30] | cancer cell lines; [31] | cancer cell lines; [32] | cancer cell lines; [33] | cancer cell lines; [34] | cancer cell lines; [35] | cancer cell lines; [36] | cancer cell lines; [37] | cancer cell lines; [38] | cancer cell lines; [39] | cancer cell lines; [40] | cancer cell lines; [41] | cancer cell lines; [42] | cancer cell lines; [43] | cancer cell lines; [44] | cancer cell lines; [45] | cancer cell lines; [46] | cancer cell lines; [47] | cancer cell lines; [50] | cancer cell lines; [51] | cancer cell lines; [52] | cancer cell lines; [53] | cancer cell lines; [54] | cancer cell lines; [55] | cancer cell lines; [56] | cancer cell lines; [57] | cancer cell lines; [58] | cancer cell lines; [60] | cancer cell lines; [61] | cancer cell lines; [62] | cancer cell lines; [64] | cancer cell lines; [65] | cancer cell lines; [66] | cancer cell lines; [67] | cancer cell lines; [68] | cancer cell lines; [69] | cancer cell lines; [70] | cancer cell lines; [71] | cancer cell lines; [74] | cancer cell lines; [75] | cancer cell lines; [76] | cancer cell lines; Homo sapiens, U2OS, bone | cancer cell lines; [77] | cancer cell lines; [78] | cancer cell lines; [79] | cancer cell lines; PBMC, hematological | cancer cell lines; RD-ES, RDES, bone
0.49 µM: cancer cell lines; [9]
0.94 µM: cancer cell lines; Homo sapiens, ACHN, kidney
0.06 µM: cancer cell lines; [48]
